Laboratory results as given in patent US11434492B2, “Ribosome-mediated incorporation of peptides and peptidomimetics” (Arizona Board of Regents on behalf of Arizona State …, priority 2015, dated 2022).

What was measured:
[1] = test system: modified ribosomes from clones 010328R4; assay: In vitro translation: incorporation into position 49 of DHFR (pETDH49), S-30 from clone 010328R4; assay type: biochemical, E. coli; details: clone 010328R4 (group 1)
Experimental: (§1) In vitro Protein Translation. Protein translation reactions were carried out in 12-2000 μL of incubation mixture containing 0.4 μL/μL of S-30 system, 100 ng/μL of plasmid, 35 mM Tris acetate, pH 7.4, 190 mM potassium glutamate, 30 mM ammonium acetate, 2 mM DTT, 0.2 mg/mL total E. coli tRNA, 3.5% PEG 6000, 20 μg/mL folinic acid, 20 mM ATP and GTP, 5 mM CTP and UTP, 100 μM amino acids mixture, 0.5 μCi/μL of ^35S-methionine for analytical purposes only and 1 μg/mL rifampicin. In the case of plasmids having a gene with a TAG codon, a suppressor tRNA was added to a concentration of 0.8 μg/μL. Reactions were carried out at 37° C. for 1 h (for 12 μL reaction mixtures) to 1.5 h (for 2000 μL reaction mixtures) and terminated by chilling on ice. Aliquots from in vitro translation mixtures were analyzed by SDS-PAGE followed by quantification of the radioactive bands by phosphorimager analysis.
The other two compounds gave about 1.5-2 times lower suppression efficiency (7-9 and 5-6%).

[2] = test system: modified ribosomes from clone 010326R6; assay: In vitro translation: suppression of TAG codon at position 66 of GFP (pETGFP66), S-30 from clone 010326R6; assay type: biochemical, Escherichia coli
Experimental: as §1
The free amino acids both have λex in the range 296-302 nm but the λem of 7 is somewhat red-shifted compared to that of 6. […] As a negative control, wild-type GFP synthesis from the modified mRNA in the presence of nonacylated tRNACUA was measured for each experiment. The amounts of GFP produced were quantified with a phosphoimager, which monitored the incorporation of ^35S-methionine into proteins. […]

[3] = Fluorescence emission of dipeptidomimetics and of proteins containing them; assay type: physicochemical; details: as stated for comparison of 6 and wild-type BFP
Text: Further, we prepared a modified DHFR having dipeptidomimetic 6 at position 10 at larger scale to investigate the fluorescence intensity of 6 in protein. The fluorescence emission spectra of wild-type DHFR and modified DHFR having 6 at position 10 were compared (FIG. 8) at 302 nm excitation wavelength.
Fluorescence Emission of an Artificial BFP Having Dipeptidomimetic 6. We designed fluorescent dipeptidomimetics 6-10 as stable analogues of GFP-chromophore. We anticipated their use to create artificial fluorescent proteins; to verify the same we replaced the chromophore of BFP with dipeptidomimetic 6 in order to prepare an artificial fluorescent protein. The fluorescence emission of 6 is near blue region of visible light spectrum (˜400 nm). Therefore, we compared the fluorescence emission intensity of artificial FP (artificial BFP 1) having 6 at position 66 with wild-type BFP, which has a fluorescence emission ˜450 nm. […] Wild-type and artificial BFP were prepared in a larger scale in a cell free translation system for fluorescence measurements.
A modified BFP construct, having a TAG codon in position 66 and a suppressor tRNACUA activated with 6 were used for the preparation of artificial BFP 1. […] As illustrated from FIG. 11, fluorescence intensity of artificial BFP 1 (emission maximum ˜375 nm) having 6 in position 66 is 20-fold greater than the wild-type BFP at similar protein concentrations. […]

[4] = test system: modified ribosomes (23S rRNA modified); assay: In vitro translation: suppression of UAG codon at position 10 of DHFR mRNA, S-30 systems having modified ribosomes; assay type: biochemical, E. coli; details: position 10 of E. coli DHFR, relative to wild-type DHFR = 100
Experimental: Preparation of Aminoacyl-tRNACUAs. The activation of suppressor tRNACUAs was carried out as described previously.^4,5 Briefly, 100-μL reaction mixture of 100 mM Na Hepes, pH 7.5, contained 1.0 mM ATP, 15 mM MgCl2, 100 μg of suppressor tRNACUA-COH, 0.5 A260 unit of N-pentenoyl-protected aminoacyl-pdCpA, 15% DMSO, and 100 units of T4 RNA ligase. The reaction mixture was incubated at 37° C. for 1.5 h and quenched by the addition of 0.1 vol of 3 M NaOAc, pH 5.2. The N-protected aminoacylated tRNA was precipitated with 3 vol of cold ethanol. The efficiency of ligation was estimated by 8% polyarylamide-7 M urea gel electrophoresis (pH 5.0).
The N-pentenoyl-protected aminoacyl-tRNACUAs were deprotected by treatment with 5 mM aqueous […] at 25° C. for 15 min. The solution was centrifuged, and the supernatant was adjusted to 0.3 M NaOAc and treated with 3 vol of cold ethanol to precipitate the aminoacylated tRNA. The tRNA pellet was collected by centrifugation, washed with 70% aq EtOH, air dried and dissolved in 20 μL of RNase free water.
Preparation of S-30 Extracts from Cells Having Modified Ribosomes. Aliquots (5-10 μL) from liquid stocks of E. coli BL-21 (DE-3) cells, harboring plasmids with a wild-type or modified rrnB gene, were placed on LB agar supplemented with 100 µg/mL of ampicillin and grown at 37° C. for 16-18 h. One colony was picked from each agar plate and transferred into 3 mL of LB medium supplemented with 100 μg/mL of ampicillin and 0.5 mM IPTG.
as §1
Incorporation of Dipeptides 2, 3 and 4 into DHFR Using the Modified Ribosomes. Initially, glycylphenylalanine (2) was chosen to screen the selected modified ribosomes for their ability to incorporate a dipeptide into DHFR. It was anticipated that minimal steric hindrance and more flexibility at the N-terminus of the dipeptide (a glycine residue) would enable optimal positioning of the amine for a nucleophilic attack in the PTC of the modified ribosomes. A modified DHFR construct, having a TAG codon in position 10 (pETDH10 plasmid) was used for the incorporation of glycylphenylalanine.
The suppression efficiencies were expressed relative to the wild-type DHFR synthesis. As a negative control, wild-type DHFR synthesis in the presence of nonacylated-tRNACUA was measured for each experiment. The amounts of DHFR produced were quantified with a phosphoimager, which monitored the incorporation of ^35S-methionine into DHFR. Using glycylphenylalanyl-tRNACUA, S-30 preparations having the modified ribosomes from clone groups 1, 2, 3 and 9 produced full length DHFR in ˜9% yields relative to the wild-type DHFR synthesis (Table 3). The modified ribosomes from clone groups 4-8 incorporated glycylphenylalanine (2) with low yields (˜2-4%). For dipeptide 2, best incorporation yields (up to 12%) were obtained by S-30 system having modified ribosomes from clone group 9 (2057AGUGAGA2063 and 2502AUCCGA2507).

| Structure (SMILES) | suppression efficiency (full-length DHFR synthesis relative to wild-type) [1] | suppression yield (full length GFP) relative to wild-type GFP synthesis [2] [%] | fluorescence emission [3] [nm] | Suppression efficiency in different S-30 systems, having modified ribosomes (%) ([4]; clone group 1) | Suppression efficiency in different S-30 systems, having modified ribosomes (%) ([4]; clone group 9) |
| --- | --- | --- | --- | --- | --- |
| C=CCCC(=O)N[C@H]1CCCCN(CC(=O)OC2C(COP(=O)(O)OC3CC(n4ccc(N)nc4=O)OC3COP(=O)(O)O)OC(n3cnc4c(N)ncnc43)C2O)C1=O (stereo partly drawn) [cyclic peptidomimetic 145, (S)-2-(2-Oxo-3-(pent-4-enamido)azepan-1-yl)acetyl-pdCpA] | 11-13% |  |  |  |  |
| COc1ccc(-c2oc(CN)nc2C(=O)O)cc1 [dipeptidomimetic 6] |  | ~6.5 | ~400 | 10.2 ± 1.7 | 9.8 ± 2.1 |
